Consider two substances from publication PMC5380659, “Unique charge-dependent constraint on collagen recognition by integrin α10β1” (Matrix Biology, 2017).

“Also recorded” adds a separate entry of the source.

In experiment [1] the test system is human recombinant GST-α10-R215Q I-domain. The experiment in a line: SPBA of α10-R215Q mutant I domain. As to conditions: 2 mM MgCl2, relative to wild type α10 I domain, Fig. 8F, Fig. 9. Format: binding. The source says:
The I domain was first applied to the collagen II and III Toolkits in the presence or absence of Mg^2 +, detected using anti-GST as before, and data are shown in Fig. 9A and B. α10-R215Q I domain binding was Mg^2 +-dependent, reproducing the wild type Toolkit II data shown in Fig. 1A.
(§1) pGEX-2T-α1, α2 and α10 I were used to generate the Q to R or R to Q mutations using QuikChange PCR kit from Stratagene (200518).
To express α2 wild type and mutant I domains, a 100-ml overnight culture of transformants (Origami strain) was used to inoculate 1 L of Luria broth containing 100 μg/ml ampicillin, 15 μg/ml Kanamycin and 12.5 μg/ml Tetracyclin. The culture was grown for 2 h at 37 °C and then induced at room temperature for 4 h with isopropyl β-D-thiogalactopyranoside (0.1 mM, Melford Laboratories, UK, #MB1008). Cells were harvested by centrifugation at 4500g for 20 min, and pellets for GST-fusion were resuspended in 10 ml Dulbecco's phosphate-buffered saline, containing 1 tablet of protease inhibitor cocktail (Roche) and 5 mg of lysozyme (Fluka). Suspensions were sonicated and Triton X-100 was added to 1% (v/v). Suspensions were mixed on a roller for 15 min at room temperature, then centrifuged at 18,000 × g for 20 min, and supernatants were pooled. […]
(§2) I domain adhesion was determined colorimetrically, as described, here termed solid phase binding assay (SPBA). […]

The subject of experiment [2] is α1-Q214R I domain. In words: SPBA of α1-Q214R mutant I domain. It is filed as binding, human. As to conditions: Gln214 replaced with Arg, Fig. 8D.
Excerpt: (§3) To test this hypothesis, we replaced the corresponding Q214 and Q215 in α1 and α2 I domains, respectively, with R, as in α10, and we replaced the R215 in the α10 I domain with Q, as in α1 and α2.
(§4) Fig. 8 Arginine substitution of I domain surface reduces binding to Toolkit peptide III-4. Wild type I domain from α1, α2 and α10 were allowed to adhere to Toolkit peptide III-4 that contains GROGER, as described in Fig. 1, and binding is shown in A, B and C, respectively. In D and E, the natural glutamine residues of α1, Q214, and of α2, Q215, was replaced with arginine. In F, the natural arginine, R215, of α10 was replaced with glutamine.
as §1
I domain adhesion was determined colorimetrically, as described, here termed solid phase binding assay (SPBA). Peptides were coated at 10 μg/ml for 1 h at 22 °C on Immulon-2 HB 96-well plates (Thermo Life Sciences, Basingstoke, UK), and blocked for 1 h with 200 μl of TBS containing 50 mg/ml bovine serum albumin. Wells were washed four times with 200 μl of the adhesion buffer (TBS with 1 mg/ml bovine serum albumin) before adding 100 μl of adhesion buffer containing 10 μg/ml of recombinant GST I domains in the presence of either 2 mM MgCl2 or EDTA for 1 h at room temperature. […]

Experiment [3] deals with α2-Q215R I domain. In words: SPBA of α2-Q215R mutant I domain. It is filed as binding, human. As to conditions: Gln215 replaced with Arg, Fig. 8E.
Excerpt: as §3, §4, §1
To express α2 wild type and mutant I domains, a 100-ml overnight culture of transformants (Origami strain) was used to inoculate 1 L of Luria broth containing 100 μg/ml ampicillin, 15 μg/ml Kanamycin and 12.5 μg/ml Tetracyclin. The culture was grown for 2 h at 37 °C and then induced at room temperature for 4 h with isopropyl β-D-thiogalactopyranoside (0.1 mM, Melford Laboratories, UK, #MB1008). […]
as §2

Experiment [4] deals with integrin α1β1. Details: method as in 3 sources, ref [4]; PMID 19693543; doi:10.1007/s00441-009-0834-6; 4 Barczyk M. Carracedo S. Gullberg D. Integrins Cell Tissue Res. 339 1 2010 269 280 19693543 10.1007/s00441-009-0834-6 PMC2784866 ||| ref [12] = [12]; PMID 22654115; doi:10.1074/jbc.M112.353144; 12 Hamaia S.W. Pugh N. Raynal N. Nemoz B. Stone R. Gullberg D. Bihan D. Farndale R.W. Mapping of potent and specific binding motifs, GLOGEN and GVOGEA, for integrin alpha1beta1 using collagen toolkits ||| ref not given. The following applies: cited from earlier work. The source says:
The collagen-binding integrin family is complete, with four established members, α1β1, α2β1, α10β1 and α11β1. These are highly-conserved, heterodimeric receptors with an important structural feature in common, the presence of an I (inserted) domain which contains the metal ion-dependent adhesion site (MIDAS). The MIDAS is a constellation of electronegative residues at the distal surface of this 200-residue domain that, in the resting, non-ligated state, can co-ordinate a Mg^2 + ion. […] Many related motifs have now been identified using the Collagen Toolkits developed in this laboratory for the purpose. These are libraries of overlapping peptides of 27 amino acids of collagen primary sequence (guest sequence), flanked ... || Why would collagen II differ in this respect?

Turning to “GROGER [short triple-helical peptide containing GROGER]”, in experiment [1], the “Binding of α10-R215Q I domain” value is reported as “restored binding; also recorded: better binding”. Further, the “Binding of α1-Q214R I domain” value in experiment [2] is “impaired their binding; also recorded: failed to bind; also recorded: collapse of binding”. Also, the “Binding of α2-Q215R I domain” value in experiment [3] is listed as “impaired their binding; also recorded: failed to bind; also recorded: collapse of binding”.
Take GLOGEN [short THP containing GLOGEN]: the “Affinity for integrin α1β1” value in experiment [4] (ref [12]) is given as “high-affinity ligand”. The “Affinity for integrin α1β1, discussion” value in experiment [4] (ref not given) is “high-affinity site”.
